Like-named read-outs stand apart in the source and are kept apart here.

From US20100120763A1, “IMIDAZO[5,1-C][1,2,4]BENZOTRIAZINE DERIVATIVES AS INHIBITORS OF PHOSPHODIESTERASES” (priority 2008, published 2010) come the findings set out here.

In experiment [1] the target is T1, PDE10A (Homo sapiens, UniProt Q9Y233).
T1 construct: made in house; host or cells: SF21 insect cells (baculovirus)
Kind of experiment: Inhibition of recombinant PDE10A (baculovirus/SF21 system), [3H]-cAMP SPA. The class given is biochemical. The conditions noted are these: read-out: PDE10A IC50. The protocol: Inhibition of Recombinant PDE10A (Baculovirus/SF21 System)
The gene was than inserted into a baculovirus vector, ligated with the baculovirus DNA. The enzyme-protein was expressed in SF21-cells. The enzyme was isolated from these cells by harvesting the cells by an centrifugation at 500 g to collect the cells.
The cells were resuspended in 50 mM Tris-HCl/1 mM EDTA/250 mM Sucrose buffer, pH=7.4 (Sigma, Deisenhofen, Germany; Merck, Darmstadt, Germany) and lysed by sonification of the cells (three times for 15 seconds, Labsonic U, Fa. Braun, Degersheim, Switzerland, level “high”). The cytosolic PDE10A was obtained by a centrifugation at 48,000 g for 1 h in the supernatant and stored at −70° C.
PDE activity was determined in a one step procedure in microtiter plates. The reaction mixture of 100 μl contained 50 mM Tris-HCl/5 mM MgCl2 buffer (pH=7.4, Sigma, Deisenhofen, Germany; Merck, Darmstadt, Germany) 0.1 μM [3H]-cAMP (Amersham, Buckinghamshire, UK) and the enzyme. Non-specific enzyme activity was determined without the enzyme. The reaction was initiated by addition of the substrate solution and was carried out at 37° C. for 30 minutes. Enzymatic activity then was stopped by addition of 25 μl Ysi-SPA-beads (Amersham-Pharmacia). One hour later the mixture was measured in a liquid scintillation counter for microtiter plates (Microbeta Trilux). The Biomek 2000 (Beckman) was used routinely for pipetting of the incubation mixture. […] For determination of IC50 values the Hill-plot, 2-parameter-model, was used.

The target of experiment [2] is T2, PDE2A (Homo sapiens, UniProt O00408).
T2 construct: made in house; host or cells: SF21 insect cells (baculovirus)
Nature of the experiment: Inhibition of recombinant PDE2A (expressed in baculovirus/SF21-cells), [3H]-cAMP SPA. The class given is biochemical. On the procedure:
Inhibition of Recombinant PDE2A (Expressed in Baculovirus/SF21-Cells)
PDE2A (NM002599) was cloned and the gene was inserted in the baculovirus and the enzyme-protein expressed in SF21-cells. The enzyme was isolated from these cells by harvesting the cells by an centrifugation at 200 g to collect the cells. The cells were resuspended in 50 mM Tris-HCl/5 mM MgCl2 buffer (pH=7.4) (Sigma, Deisenhofen, Germany; Merck, Darmstadt, Germany) and lysed by a sonication of the cells (three times for 15 seconds, Labsonic U, Fa. Braun, Degersheim, Switzerland, level “high”). The membrane fraction of PDE2A was obtained by a centrifugation at 48 000 g for 1 h, resuspended in buffer and stored at −70° C.
PDE2A activity was determined in a one step procedure in microtiterplates. The reaction mixture of 100 μl contained 50 mM Tris-HCl/5 mM MgCl2 buffer (pH=7.4) (Sigma, Deisenhofen, Germany; Merck, Darmstadt, Germany), 0.5 μM [3H]-cAMP (Amersham, Buckinghamshire, UK), 1000 nM cGMP and the enzyme. Non-specific enzyme activity was tested in the absence of cGMP. The reaction was initiated by addition of the substrate solution and was carried out at 37° C. for 30 minutes. Enzymatic activity then was stopped by addition of 25 μl SPA-beads (Amersham-Pharmacia). One hour later the mixture was measured in a liquid scintillation counter for microtiterplates (Microbeta Trilux). For pipetting of the incubation mixture the robot Biomek (Fa. Beckman) was routinely used.
For determination of IC50 values the Hill-plot, 2-parameter-model, was used.

The mark [3] stands for this setting: recombinant PDE10A1, cytosolic, 0.1 μM [3H]-cAMP, 37° C., 30 minutes.

T1 sequence (Q9Y233 1-779 isoform Q9Y233-1): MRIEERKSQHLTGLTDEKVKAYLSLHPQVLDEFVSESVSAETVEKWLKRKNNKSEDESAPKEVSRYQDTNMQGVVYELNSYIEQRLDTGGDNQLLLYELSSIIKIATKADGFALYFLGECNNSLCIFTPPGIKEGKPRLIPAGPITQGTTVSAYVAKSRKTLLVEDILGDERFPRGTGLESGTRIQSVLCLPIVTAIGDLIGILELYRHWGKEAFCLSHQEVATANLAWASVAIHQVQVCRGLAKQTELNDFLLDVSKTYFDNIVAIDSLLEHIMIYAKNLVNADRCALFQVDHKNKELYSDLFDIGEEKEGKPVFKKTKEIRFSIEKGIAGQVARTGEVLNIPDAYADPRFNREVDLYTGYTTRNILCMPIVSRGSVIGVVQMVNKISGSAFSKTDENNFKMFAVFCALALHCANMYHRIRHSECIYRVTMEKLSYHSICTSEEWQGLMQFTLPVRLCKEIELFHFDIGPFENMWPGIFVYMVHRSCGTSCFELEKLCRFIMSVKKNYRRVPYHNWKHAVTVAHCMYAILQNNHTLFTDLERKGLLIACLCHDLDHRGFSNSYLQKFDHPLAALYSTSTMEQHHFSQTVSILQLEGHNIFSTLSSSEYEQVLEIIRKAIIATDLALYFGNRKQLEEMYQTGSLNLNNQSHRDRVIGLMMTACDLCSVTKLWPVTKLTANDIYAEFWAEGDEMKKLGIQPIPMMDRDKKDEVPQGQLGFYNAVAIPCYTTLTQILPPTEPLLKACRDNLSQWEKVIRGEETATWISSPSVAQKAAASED
T2 sequence (O00408 whole entry): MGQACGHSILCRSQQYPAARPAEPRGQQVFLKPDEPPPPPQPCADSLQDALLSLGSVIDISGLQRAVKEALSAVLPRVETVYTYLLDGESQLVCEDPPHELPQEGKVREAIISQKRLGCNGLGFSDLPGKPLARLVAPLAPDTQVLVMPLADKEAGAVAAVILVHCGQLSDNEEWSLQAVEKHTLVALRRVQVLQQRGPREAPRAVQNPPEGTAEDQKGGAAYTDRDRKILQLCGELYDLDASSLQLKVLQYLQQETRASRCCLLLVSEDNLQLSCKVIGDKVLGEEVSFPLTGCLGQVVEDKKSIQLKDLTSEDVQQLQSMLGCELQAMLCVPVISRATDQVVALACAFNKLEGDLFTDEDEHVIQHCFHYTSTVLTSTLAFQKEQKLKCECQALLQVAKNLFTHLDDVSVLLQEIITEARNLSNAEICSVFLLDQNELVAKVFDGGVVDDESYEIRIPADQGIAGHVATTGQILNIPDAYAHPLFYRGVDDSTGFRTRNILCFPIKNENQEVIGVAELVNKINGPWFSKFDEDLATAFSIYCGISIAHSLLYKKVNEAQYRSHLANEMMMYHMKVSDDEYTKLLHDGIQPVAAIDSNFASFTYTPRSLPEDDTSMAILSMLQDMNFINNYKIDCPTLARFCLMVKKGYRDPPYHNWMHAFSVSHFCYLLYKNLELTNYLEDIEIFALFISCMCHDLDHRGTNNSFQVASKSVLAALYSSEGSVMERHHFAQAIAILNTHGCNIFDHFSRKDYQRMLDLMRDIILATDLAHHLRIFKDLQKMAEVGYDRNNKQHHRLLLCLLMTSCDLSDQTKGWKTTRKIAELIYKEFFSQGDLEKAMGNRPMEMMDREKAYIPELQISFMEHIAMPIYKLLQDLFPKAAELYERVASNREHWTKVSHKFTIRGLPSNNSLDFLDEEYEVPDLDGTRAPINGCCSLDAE

The term IC50 denotes the midpoint of a concentration-inhibition curve. As for “8-fluoro-1-isobutyl-3-methylbenzo[e]imidazo[5,1-c][1,2,4]triazine [Example 9]”, the IC50 in experiment [1] (setting [3]) turned out to be 0.156 µM; in experiment [2] (recombinant PDE2A, membrane fraction, 0.5 μM [3H]-cAMP, 1000 nM cGMP, 37° C., 30 minutes, read-out: PDE2A IC50), 0.302 µM.
On to “8-fluoro-6-methoxy-3-methyl-1-(2-methylpyridin-3-yl)imidazo[5,1-c][1,2,4]benzotriazine [Example 130]”, for which, in experiment [1], the IC50 was found to be 0.00784 µM.
For “8-fluoro-6-methoxy-3-methyl-1-(3-methylpyridin-4-yl)imidazo[5,1-c][1,2,4]benzotriazine [Example 131]”, in experiment [1] (setting [3]), the IC50 was determined as 0.0072 µM.
`COc1cc(OC)c2nnc3c(C)nc(-c4cnccc4C)n3c2c1` [Example 45, 6,8-dimethoxy-3-methyl-1-(4-methylpyridin-3-yl)imidazo[5,1-c][1,2,4]benzotriazine]: the 50% inhibitory concentration (IC50) in experiment [1] (setting [3]) came out at 0.00416 µM; in experiment [2] it was 0.775 µM.
The corresponding values for `COc1cc(OC)c2nnc3c(C)nc(-c4ccncc4C)n3c2c1` [Example 47, 6,8-dimethoxy-3-methyl-1-(3-methylpyridin-4-yl)-imidazo[5,1-c][1,2,4]benzotriazine] are 0.00206 µM and 0.589 µM.
For `COc1cc(OC)c2nnc3c(C)nc(-c4cccnc4C)n3c2c1` [Example 48, 6,8-dimethoxy-3-methyl-1-(2-methylpyridin-3-yl)imidazo[5,1-c][1,2,4]benzotriazine], the IC50 in experiment [1] (setting [3]) turned out to be 0.00148 µM; in experiment [2], 0.196 µM.
For `COc1cc(OC)c2nnc3c(C)nc(-c4c(C)n[nH]c4C)n3c2c1` [Example 51, 1-(3,5-dimethyl-1H-pyrazol-4-yl)-6,8-dimethoxy-3-methylimidazo[5,1-c][1,2,4]benzotriazine], in that order: 0.0007 µM and 0.21 µM.
The corresponding values for `COc1cc(OC)c2nnc3c(C)nc(-c4c(C)nn(C)c4C)n3c2c1` [Example 52, 6,8-dimethoxy-3-methyl-1-(1,3,5-trimethyl-1H-pyrazol-4-yl)imidazo[5,1-c][1,2,4]benzotriazine] are 0.00185 µM and 0.292 µM.
The corresponding values for `COc1cccc2c1nnc1c(C)nc(-c3ccccc3C)n12` [Example 60, 6-methoxy-3-methyl-1-(2-methylphenyl)imidazo[5,1-c][1,2,4]benzotriazine] are 0.00331 µM and 0.172 µM.
Regarding `COc1cccc2c1nnc1c(C)nc(-c3ccccc3Cl)n12` [Example 61, 1-(2-chlorophenyl)-6-methoxy-3-methylbenzo[e]imidazo[5,1-c][1,2,4]triazine], the IC50 came out at 0.00241 µM in experiment [1] (setting [3]) and 0.103 µM in experiment [2].
The corresponding values for `COc1cccc2c1nnc1c(C)nc(-c3ccncc3C)n12` [Example 62, 6-methoxy-3-methyl-1-(3-methylpyridin-4-yl)imidazo[5,1-c][1,2,4]benzotriazine] are 0.00834 µM and 0.442 µM.
With `COc1cc(N2CCOCC2)cc2c1nnc1c(C)nc(-c3ccncc3C)n12` [Example 63, 6-methoxy-3-methyl-1-(3-methylpyridin-4-yl)-8-morpholin-4-ylimidazo[5,1-c][1,2,4]benzotriazine], the figures for the IC50 in experiment [1] (setting [3]) and in experiment [2] were 0.00399 µM and 0.437 µM, respectively.
The corresponding values for `COc1cc(N2CCOCC2)cc2c1nnc1c(C)nc(-c3cccnc3C)n12` [Example 64, 6-methoxy-3-methyl-1-(2-methylpyridin-3-yl)-8-morpholin-4-ylimidazo[5,1-c][1,2,4]benzotriazine] are 0.00192 µM and 0.0704 µM.
For `COc1cc(N2CCOCC2)cc2c1nnc1c(C)nc(-c3ccccc3Cl)n12` [Example 65, 1-(2-chlorophenyl)-6-methoxy-3-methyl-8-morpholin-4-ylimidazo[5,1-c][1,2,4]benzotriazine], in that order: 0.00085 µM and 0.0504 µM.
For `COc1cc(N2CCOCC2)cc2c1nnc1c(C)nc(-c3ccccc3C)n12` [Example 66, 6-methoxy-3-methyl-1-(2-methylphenyl)-8-morpholin-4-ylimidazo[1,5-c][1,2,4]benzotriazine], in that order: 0.00153 µM and 0.11 µM.
As to `COc1cccc(-c2nc(C)c3nnc4c(F)cc(OC)cc4n23)c1` [Example 67, 6-fluoro-8-methoxy-1-(3-methoxyphenyl)-3-methylimidazo[5,1-c][1,2,4]benzotriazine], the figures for the IC50 in experiment [1] (setting [3]) and in experiment [2] were 0.0168 µM and 0.0648 µM, respectively.
The corresponding values for `COc1cc(F)c2nnc3c(C)nc(-c4cc(Cl)ccc4OC)n3c2c1` [Example 68, 1-(5-chloro-2-methoxyphenyl)-6-fluoro-8-methoxy-3-methylimidazo[5,1-c][1,2,4]benzotriazine] are 0.0642 µM and 0.109 µM.
The corresponding values for `COc1cc(F)c2nnc3c(C)nc(-c4ccc(F)cc4C)n3c2c1` [Example 69, 6-fluoro-1-(4-fluoro-2-methylphenyl)-8-methoxy-3-methylimidazo[5,1-c][1,2,4]benzotriazine] are 0.0347 µM and 0.0555 µM.
In the case of `COc1cc(F)c2nnc3c(C)nc(-c4ccc(F)cc4Cl)n3c2c1` [Example 70, 1-(2-chloro-4-fluorophenyl)-6-fluoro-8-methoxy-3-methylimidazo[5,1-c][1,2,4]benzotriazine], the IC50 in experiment [1] (setting [3]) came out at 0.0125 µM; in experiment [2], 0.0228 µM.
Turning to `COc1cc(F)c2nnc3c(C)nc(-c4ccc(C)cc4Cl)n3c2c1` [Example 71, 1-(2-chloro-4-methylphenyl)-6-fluoro-8-methoxy-3-methylimidazo[5,1-c][1,2,4]benzotriazine], the IC50 in experiment [1] (setting [3]) was found to be 0.0114 µM; in experiment [2], 0.00553 µM.
As to `COc1cc(F)c2nnc3c(C)nc(-c4cc(C)ccc4Cl)n3c2c1` [Example 72, 1-(2-chloro-5-methylphenyl)-6-fluoro-8-methoxy-3-methylimidazo[5,1-c][1,2,4]benzotriazine], the figures for the IC50 in experiment [1] (setting [3]) and in experiment [2] were 0.00777 µM and 0.0144 µM, respectively.
Take `COc1cc(F)c2nnc3c(C)nc(-c4cc(F)ccc4C)n3c2c1` [Example 73, 6-fluoro-1-(5-fluoro-2-methylphenyl)-8-methoxy-3-methylimidazo[5,1-c][1,2,4]benzotriazine]: the IC50 in experiment [1] (setting [3]) came out at 0.0189 µM; in experiment [2], 0.0151 µM.
For the compound `COc1cc(F)cc2c1nnc1c(C)nc(-c3cc(C)ccc3F)n12` [Example 105, 8-fluoro-1-(2-fluoro-5-methylpehnyl)-6-methoxy-3-methylimidazo[5,1-c][1,2,4]benzotriazine], in experiment [1] (setting [3]), the IC50 was determined as 0.00713 µM.
The same measure, in the same setting: the same measure for `COc1cc(F)cc2c1nnc1c(C)nc(-c3cc(F)ccc3Cl)n12` [Example 118, 1-(2-chloro-5-fluorophenyl)-8-fluoro-6-methoxy-3-methylimidazo[5,1-c][1,2,4]benzotriazine]: 0.00202 µM; for `Cc1cnccc1-c1nc(C)c2nnc3c(Cl)cc(C(F)(F)F)cc3n12` [Example 132, 6-Chloro-3-methyl-1-(3-methylpyridin-4-yl)-8-(trifluoromethyl)imidazo[5,1-c][1,2,4]benzotriazine]: 0.0327 µM; for `COc1ccc(Cl)cc1-c1nc(C)c2nnc3c(OC)cc(C(F)(F)F)cc3n12` [Example 142, 1-(5-Chloro-2-methoxyphenyl)-6-methoxy-3-methyl-8-(trifluoromethyl)benzo[e]imidazo[5,1-c][1,2,4]triazine]: 0.0106 µM.
